Data from PMC8911181, “A Novel CDK4/6 and PARP Dual Inhibitor ZC-22 Effectively Suppresses Tumor Growth and Improves the Response to Cisplatin Treatment in Breast and Ovarian Cancer” (International Journal of Molecular Sciences, 2022).

Columns and labels:
MDA-MB-231 cells = test: Cell viability assay (CCK-8), IC50; type: cell-based; settings: Homo sapiens, 6 days, medium replenished every 2 days
Protocol: (§1) Human breast cancer cell lines MDA-MB-231 and SUM-159, and human ovarian cancer cell lines OVCAR5 and SKOV3 were obtained from the American Type Culture Collection (ATCC). MDA-MB-231 cells were cultured in L-15 medium with 10% fetal bovine serum (FBS), incubated at 37 °C in a humidified incubator without additional CO2. SUM-159 cells were maintained in Dulbecco’s modified Eagle’s medium (DMEM) containing 10% FBS, and OVCAR5 and SKOV3 cells were incubated in Roswell Park Memorial Institute (RPMI)-1640 medium with 10% FBS and cultured at 37 °C in a humidified incubator containing 5% CO2.
(§2) Cell viability assay was performed as described before. Briefly, 2500/well of breast or ovarian cancer cells were seeded into a 96-well plate; grown overnight; treated with indicated concentration of Olaparib, LY2835219, ZC22, LP-1, GC-24, or cisplatin alone or together for an indicated amount of time; and then incubated with Cell Counting kit-8 (CCK-8) substrate (Dojindo, Kumamoto, Kyushu Island, Japan) for 1–2 h at 37 °C. Cell viability was calculated by the absorbance at 450 nm measured by the GloMax Explorer (Promega, Madison, WI, USA). Cells without treatment were set as 100%, and medium control (no cells) was set as 0%.
(§3) Figure 1 Synthesis strategy and activity assay of the novel compounds targeting both PARP and CDK4/6. (A) Synthesis strategy of the three novel compounds GC-24, LP-1, and ZC-22. (B) IC50 of GC-24, LP-1, and ZC-22 in breast and ovarian cancer cells. Cells were treated with increasing concentrations of GC-24, LP 1, or ZC-22 for 6 days with replenishment of medium every 2 days. Cell proliferation was analyzed by CCK-8 assays. (C) The reagents and conditions used for the chemical synthesis of ZC-22 in this study: (a) Pd(AcO)2, BINAP, CS2CO3, 1,4-Dioxane, 100 °C, 12 h; (b) CF3COOH, DCM, Room temperature, 6 h; (c) HOBt, EDCI, DIPEA, DMF, Room temperature, 12 h. TEXT PRINTED IN THE PICTURE: (B) LP-1: MDA-MB-231 IC50 (μM): >50; SUM-159 IC50 (μM): 7.780; OVCAR5 IC50 (μM): 10.11; SKOV3 IC50 (μM): 10.16 | (B) GC-24: MDA-MB-231 IC50 (μM): 33.77; SUM-159 IC50 (μM): 17.77; OVCAR5 IC50 (μM): 26.08; SKOV3 IC50 (μM): >50 | (B) ZC-22: MDA-MB-231 IC50 (μM): 3.608; SUM-159 IC50 (μM): 0.435; OVCAR5 IC50 (μM): 0.758; SKOV3 IC50 (μM): 0.542
(§4) Figure 2 ZC-22 suppresses proliferation of breast and ovarian cancer cells. (A) IC50 of ZC-22, Olaparib, and LY2835219 (Abemaciclib) in breast and ovarian cancer cells. Cells were treated with increasing concentrations of ZC-22, Olaparib, or LY2835219 for 6 days with replenishment of medium every 2 days. Cell proliferation was analyzed by CCK-8 assays. (B) Cell proliferation assay of breast and ovarian cancer cells with indicated treatment. MDA-MB-231 cells were treated with 2 μM Olaparib (OLA) or LY2835219 (LY-2) alone or together (OLA + LY-2) or with ZC-22 alone for 48 or 72 h. SUM-159, OVCAR5, and SKOV3 cells were treated with 0.5 μM OLA or LY-2 alone or together or with ZC-22 alone. Cell proliferation assay was analyzed by CCK-8 assays. Values are means ± SD, n = 3. ns, not significant, * p < 0.05, ** p < 0.01 and *** p < 0.001 for comparisons with the DMSO-treated group using an unpaired t-test. TEXT PRINTED IN THE PICTURE: (A) ZC-22: MDA-MB-231 IC50 (μM): 3.608; SUM-159 IC50 (μM): 0.435; OVCAR5 IC50 (μM): 0.758; SKOV3 IC50 (μM): 0.542 | (A) LY2835219: MDA-MB-231 IC50 (μM): 11.28; SUM-159 IC50 (μM): 0.664; OVCAR5 IC50 (μM): 9.791; SKOV3 IC50 (μM): 1.158 | (A) Olaparib: MDA-MB-231 IC50 (μM): 32.13; SUM-159 IC50 (μM): 19.29; OVCAR5 IC50 (μM): 30.51; SKOV3 IC50 (μM): >50

OVCAR5 cells = test: Cell viability assay (CCK-8), IC50; type: cell-based; settings: Homo sapiens, OVCAR-5, 6 days, medium replenished every 2 days
Protocol: as §1, §2, §3, §4

SKOV3 cells = test: Cell viability assay (CCK-8), IC50; type: cell-based; settings: Homo sapiens, SK-OV-3, 6 days, medium replenished every 2 days
Protocol: as §1, §2, §3, §4

SUM-159 cells = test: Cell viability assay (CCK-8), IC50; type: cell-based; settings: Homo sapiens, SUM159, 6 days, medium replenished every 2 days
Protocol: as §1, §2, §3, §4

[1] = tested on: MDA-MB-231 xenograft tumors; test: Breast cancer xenograft mouse model, tumor growth; type: in vivo, mice; settings: 1.5 mg/kg cisplatin or 50 mg/kg ZC-22 ip alone or together
Protocol: Six-week-old female athymic nude mice (Homozygous) were purchase from Vital River Laboratories (Beijing, China) and maintained under the guidelines for laboratory animals of Nankai university (NKU). Mice were injected subcutaneously with 2 × 10^6 MDA-MB-231 or 8 × 10^6 OVCAR5 cells. When tumors were 50–100 mm^3 in size, the mice were randomly grouped and treated intraperitoneal (i.p.) with 50 mg/kg of Olaparib, 50 mg/kg of LY2835219, 50 mg/kg of ZC-22, or 1.5 mg/kg of cisplatin alone or in combinations or with the vehicle (PBS containing 10% DMSO and 10% 2-hydroxy-propyl-β-cyclodextrin) every 2 days. Tumor volume was measured every 3–4 days, which was calculated as Length × Width^2/2. At the end of the study, tumor and major organ tissues were harvested by surgery. For histopathological analysis, tissue samples were washed with PBS, fixed in 4% paraformaldehyde (PFA), paraffin-embedded, and sectioned into 7 μm thickness. For Western blot analysis, the tissue samples were dissociated by a tissue-tearor in RIPA buffer containing 1×protease and phosphatase inhibitors.
Figure 4 ZC-22 suppresses growth of breast cancer xenografts. Female NOD-SCID mice were injected subcutaneously with 2 × 10^6 of MDA-MB-231 cells and treated ip daily with 50 mg/kg of Olaparib (OLA) or LY2835219 (LY-2) alone or together (OLA + LY-2) or with ZC-22 alone starting on day 10 after injection of cells when tumors were 50–80 mm^3 in size. Tumor volumes were measured every 2–3 days. […] (B,C) Pictures of (B) and quantification of the size of (C) the MDA-MB-231 xenograft tumors at the end points. […] (E) Quantification of Ki67 (Left) and γH2A.X (Right)-positive cells in immunohistochemical staining of the xenograft tumor tissues. […]
Figure 6 ZC-22 sensitizes breast cancer cells to cisplatin treatment in vivo. […] Tumor volumes were measured every 2–3 days. […] (B,C) Pictures (B) and quantification of the size (C) of the MDA-MB-231 xenograft tumors at the end points. […] (E) Quantification of Ki67 (left) and γH2A.X (right)-positive cells in immunohistochemical staining of the xenograft tumor tissues. […]

CC(=O)c1c(C)c2cnc(Nc3ccc(N4CCN(C(=O)c5cc(Cc6n[nH]c(=O)c7ccccc67)ccc5F)CC4)cn3)nc2n(C2CCCC2)c1=O [GC-24]
IC50 (MDA-MB-231 cells): 33.8 µM
IC50 (OVCAR5 cells): 26.1 µM
IC50 (SKOV3 cells): > 50 µM
IC50 (SUM-159 cells): 17.8 µM

CN(C)C(=O)c1cc2cnc(Nc3ccc(N4CCN(C(=O)c5cc(Cc6n[nH]c(=O)c7ccccc67)ccc5F)CC4)cn3)nc2n1C1CCCC1 [LP-1]
IC50 (MDA-MB-231 cells): > 50 µM
IC50 (OVCAR5 cells): 10.1 µM
IC50 (SKOV3 cells): 10.2 µM
IC50 (SUM-159 cells): 7.78 µM

O=C(c1cc(Cc2n[nH]c(=O)c3ccccc23)ccc1F)N1CCN(C(=O)C2CC2)CC1 [Olaparib, reference compound]
IC50 (MDA-MB-231 cells): 32.1 µM
IC50 (OVCAR5 cells): 30.5 µM
IC50 (SKOV3 cells): > 50 µM
IC50 (SUM-159 cells): 19.3 µM

N.N.[Cl][Pt][Cl] [cisplatin]
growth of the xenograft tumors [1]: effectively inhibit growth of the xenograft tumors
